Among the data in patent US11066378B2, “Caffeic acid derivatives for anti-angiogenesis” (Taipei Medical University, priority 2015, dated 2021) are GI50 values, retold here.

Molecules are shown by their SMILES.

For the assay, the system named is HUVECs. As to the kind of experiment: Cell viability assay (MTT assay), growth inhibition of HUVECs. It counts as cell-based, human. The conditions noted are these: Homo sapiens, HUVEC, 24 h, MTT assay, 24 h treatment, 5% FBS-stimulated HUVECs. On the procedure:
Human umbilical vein endothelial cells (HUVECs; #8000) were purchased from the ScienCell Research Laboratories (San Diego, Calif., USA). The cells were seeded on gelatin-coated culture dishes and grown in the commercial endothelial cell medium (#1001; ScienCell) containing 5% fetal bovine serum (FBS; #0025; ScienCell), 30 μg/mL endothelial cell growth supplements (ECGS; #1052; ScienCell), 100 units/mL penicillin G, and 100 μg/mL streptomycin sulfates (#0503; ScienCell). Cells at passage 3-6 were used for experiments. Mouse Lewis lung carcinoma cell line 1 (LLC1; #60050) was bought from the Food Industry Research and Development Institute (Hsinchu, Taiwan) and cultured in Gibco® Dulbecco's modified Eagle's medium (#12800-017; Invitrogen, Carlsbad, Calif., USA) supplemented with 10% FBS (HyClone, Logan, Utah, USA), 4 mM L-glutamine, 1.5 g/L sodium bicarbonate, 100 units/mL penicillin G, and 100 μg/mL streptomycin. All cells were incubated in a humidified 5% CO2 atmosphere at 37° C. and culture media was changed every 2˜3 days.
The experiments were performed according to our previous study with minor modifications (Pan et al., 2010). Briefly, the cells (2×10^4 cells/well) were seeded and grown under normal culture medium for 24 h. After another 24 h of starvation with 0.5% FBS, the cells were treated with several concentrations (1, 2, 4, 8, and 16 μM) of the tested compounds for 24 h and then incubated with 5 mg/mL of MTT (3-[4,5-dimethyl thiazol-2-yl]-2,5-diphenyl tetrazolium bromide) for 2 h. After that, the cells were washed with 1×PBS and then dimethyl sulfoxide (DMSO) was added to each well. Absorbance values at 570 nm were determined for each well using 650 nm as the reference wavelength. The absorbance of the control group (treated with 5% or 10% FBS alone) was defined as 100%.
Background: Tetrazolium dyes change colour on reduction, which living cells bring about.
For the compound `COC(=O)/C=C/c1ccc(O)c(O)c1` [Methyl caffeate, reference compound], it took 80 µM to inhibit growth by half (GI50). On to `COC(=O)/C=C/c1cc(OC(C)=O)c2oc(-c3ccc(OC(C)=O)c(OC(C)=O)c3)c(C(=O)OC)c2c1` [K20B], for which the GI50 (in general, the concentration giving 50% growth inhibition) turned out to be 24 µM.

`COC(=O)/C=C/c1cc(OC)c2c(c1)[C@H](C(=O)OC)[C@@H](c1ccc(O)c(OC)c1)O2` [K20L]: the GI50 is 32 µM. As to `COc1cc([C@H]2Oc3c(OC)cc(/C=C/C=O)cc3[C@@H]2C)ccc1O` [K20A], the GI50 was found to be 24 µM.
